Results from BindingDB's records for PubMed 9584223 (University of Bath, 1998).
Where “and” joins values, the source holds several entries; their conditions need not be identical. Equal entries are not always repeated.

Target: Neuronal acetylcholine receptor subunit alpha-4 (Homo sapiens, UniProt P43681)
Sequence (P43681 whole entry): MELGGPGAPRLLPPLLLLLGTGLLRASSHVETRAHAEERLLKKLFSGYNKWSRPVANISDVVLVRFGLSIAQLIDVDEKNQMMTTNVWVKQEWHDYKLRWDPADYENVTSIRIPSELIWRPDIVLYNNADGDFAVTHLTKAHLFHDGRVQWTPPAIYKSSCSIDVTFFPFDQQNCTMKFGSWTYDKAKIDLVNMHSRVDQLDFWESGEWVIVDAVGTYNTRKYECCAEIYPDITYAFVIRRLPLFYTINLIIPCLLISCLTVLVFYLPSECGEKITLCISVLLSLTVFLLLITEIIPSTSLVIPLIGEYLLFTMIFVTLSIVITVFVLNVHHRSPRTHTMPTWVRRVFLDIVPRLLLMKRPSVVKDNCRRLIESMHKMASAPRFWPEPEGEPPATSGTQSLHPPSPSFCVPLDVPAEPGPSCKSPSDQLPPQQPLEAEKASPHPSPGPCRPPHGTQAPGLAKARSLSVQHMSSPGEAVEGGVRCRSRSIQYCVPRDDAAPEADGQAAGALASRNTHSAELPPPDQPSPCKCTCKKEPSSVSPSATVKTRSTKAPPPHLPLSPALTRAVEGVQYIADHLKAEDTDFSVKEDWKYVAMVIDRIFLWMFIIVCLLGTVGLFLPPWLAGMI

Compound	Ki
CCN1C[C@]2(COC(=O)c3ccccc3-n3c(O)cc(C)c3O)CC[C@H](OC)[C@]34C5C[C@@H]6[C@@H](OC)C[C@@](O)(C5[C@H]6OC)[C@@](O)(C13)[C@@H](OC)C24 (stereo partly drawn) [[(1S,4S,5R,6S,8R,9R,13S,16S,18S)-11-ethyl-8,9-dihydroxy-4,6,16,18-tetramethoxy-11-azahexacyclo[7.7.2.1^{2,5}.0^{1,10}.0^{3,8}.0^{13,17}]nonadecan-13-yl]methyl 2-[(3S)-3-methyl-2,5-dioxopyrrolidin-1-yl]benzoate]	6100 nM and 1600 nM
COc1cc2c3cc1Oc1cc(ccc1O)C[C@H]1c4c(cc(OC)c(O)c4Oc4ccc(cc4)C[C@@H]3N(C)CC2)CC[N+]1(C)C [CAS_57-94-3]	1000 nM and > 10000 nM
CNC1(C)C2CCC(C2)C1(C)C (stereo unspecified) [Methyl-(2,3,3-trimethyl-bicyclo[2.2.1]hept-2-yl)-amine(Mecamylamine)]	> 10000 nM
C[N+](C)(C)CCCCCC[N+](C)(C)C [Hexamethoniumdibromide]	> 10000 nM
O=c1cccc2n1C[C@H]1CNC[C@H]2C1 [(1S,9R)-7,11-diazatricyclo[7.3.1.0~2,7~]trideca-2,4-dien-6-one]	17 nM and 3.3 nM
Cc1cc([C@@H]2CCCN2C)on1 [ABT-418]	1.7 nM
